Test results from US8937095B2, “Anticancer compounds” (Boehringer Ingelheim International GmbH, priority 2012, dated 2015).

What was measured:
A375 cells = test: Proliferation assay (CyQuant Direct), A375 cells; assay type: cell-based; conditions: Homo sapiens, A-375; 72 hour incubation; read-out: GI50 antiproliferative effect on A375 cells
Description: (§1) Experimental Procedure of Proliferation Assay:
(§2) A375 and Calu6 cells are grown in RPMI1640, 10% FBS, in a humidified atmosphere of 5% CO2 at 37° C. Cells are seeded into flat bottom 96 well microtiter plates and incubated in a humidified atmosphere of 5% CO2 at 37° C. for 24 hours. Compounds are added, at the same time, a “time zero” untreated cell plate is stained and measured after 1 h. Compounds are serially diluted 5-fold from the highest test concentration (10 μM) and assayed over 8 concentrations in duplicates. The concentration of the solvent DMSO in the final culture is 0.1%. After a 72 hour incubation period, cells are stained with fluorescent nuclear dye to allow visualization of nuclei (CyQuant Direct Cell Proliferation Assay, Invitrogen Cat. No. C35012). Total fluorescence intensity of each well is measured using an Envision platform with excitation at 480 nm, emission detection at 535 nm. The assay signal correlates to the number of nuclei and thus, by definition, to the number of cells in the culture well (“cell count”).
(§3) The cell proliferation assay output for control cells after 72 hours of incubation, corresponding to 100% cell proliferation, is taken as the reference cell count for all subsequent calculations. Relative cell proliferation in compound-treated cultures (signal percent of control, “POC”) is calculated according to the following formula: POC(t=72 h)=100*fluorescence(compound wells)/fluorescence(control wells)
(§4) In addition, for each compound-treated culture, the cell count after incubation for 72 hours (POC(t=72h)) is related to the cell count at the start of treatment (POC(t=0 h)): POC(t=0 h)=100*fluorescence at t=0(control wells)/fluorescence at t=72 h(control wells)
(§5) The concentration-response curves were calculated using the dose-response package (drc versio 2.0-1 http://cran.rproject.org/web/packages/drc/index.html) from R (version 2.10.1 http://www.r-project.org/). […]
(§6) Relative cell growth inhibition (CGI %) in compound-treated cultures is calculated according to the following formula: […]

Calu6 cells = test: Proliferation assay (CyQuant Direct), Calu6 cells; assay type: cell-based; conditions: Homo sapiens, Calu-6; 72 hour incubation; read-out: GI50 antiproliferative effect on Calu6 cells
Description: as §1, §2, §3, §4, §5, §6

GI50 (A375 cells) | GI50 (Calu6 cells) | SMILES
3.37 nM | 7.82 nM | CCNC(=O)C#Cc1ccc2c(c1)NC(=O)/C2=C(\Nc1ccc(CNC)cc1)c1ccccc1 [Compound 26, 3-[3-[[4-(methylaminomethyl)anilino]-phenylmethylidene]-2-oxo-1H-indol-6-yl]-N-ethylprop-2-ynamide]
17.3 nM | 11.3 nM | CCNC(=O)C#Cc1ccc2c(c1)NC(=O)/C2=C(\Nc1ccc(C[N+](C)(C)[O-])cc1)c1ccccc1 [Compound 27, 3-[3-[[4-(dimethyloxidoaminomethyl)anilino]-phenylmethylidene]-2-oxo-1H-indol-6-yl]-N-ethylprop-2-ynamide]

SMILES | GI50 (A375 cells) | GI50 (Calu6 cells)
CCNC(=O)C#Cc1ccc2c(c1)NC(=O)/C2=C(\Nc1ccc(CN(C)C)cc1)c1ccccc1 [Compound 6, 3-[3-[[4-(dimethylaminomethyl)anilino]-phenylmethylidene]-2-oxo-1H-indol-6-yl]-N-ethylprop-2-ynamide] | 2.7 nM | 7.66 nM
